Values of other authors, collected in US20230037660A1, “METHODS OF TREATING VASCULAR LESIONS AND MALFORMATIONS” (priority 2019, published 2023).

Test system: diseased tissue / blood vessels
Details: ICG alone, not conjugated

## CC1(C)C(/C=C/C=C/C=C/C=C2\N(CCCCS(=O)(=O)O)c3ccc4ccccc4c3C2(C)C)=[N+](CCCCS(=O)(=O)[O-])c2ccc3ccccc3c21 [ICG, indocyanine green]
  Fluorescence behaviour of the dye alone after injection: transiently lights up blood vessels immediately after injection
